Reference: US20170304168A1, “PHENYL KETONE DERIVATIVES AS SELF-TANNING AGENTS” (MERCK PATENT GmbH, priority 2012, published 2017)

System: B16V mouse melanoma cells
Assay: B16 V mouse melanoma cell test (melanin content)
Type: cell-based
Conditions: for Melanin content in pg/B-16V cell: relative to negative control DMSO 0.1% = 100
Procedure: mouse melanoma cells (manufacturer: DSMZ; Article No.: ACC370) in RPMI medium (Invitrogen, Article No.: 31870), to which 10% of FBS (foetal bovine serum; Invitrogen, Article No.: 10499044), 2 mM L-glutamine (Invitrogen, Article No: 25030) and 1 mM sodium pyruvate (Invitrogen, Article No.: 11360) had additionally been added (=modified RPMI medium), are transferred into a culture flask and incubated at 37° C. and 5% CO2 for 72 h. The medium is separated off, and the cells are washed with 10 ml of D-PBS (Dulbecco's phosphate-buffered salines; Invitrogen, Article No.: 14190) and subsequently removed by suction. 1 ml of HyQtase cell detachment solution (Hyclone, Article No.: SV30030.01) is added to the cells. The bottle is swirled a number of times, and the HyQtase cell detachment solution is subsequently removed by suction. The cells are then incubated in the incubator at 37° C. and 5% CO2 for 5 min. The cells are taken up in the modified RPMI medium (see above), and the cell count is determined. To this end, the cells are stained with Trypan Blue and counted in a Neubauer chamber. The cells are subsequently sown out again in the modified RPMI medium (see above) in a defined cell count of 80,000 cells per well (6-well clear plate, TCT, PS (Nunc)). The cells are incubated at 37° C. and 5% CO2 for 24 h, the medium is then removed. The substance to be investigated (see table below) is subsequenly added in various concentrations. After the final incubation period, the medium is removed by suction, and the cells are washed with 1000 μl of D-PBS (Invitrogen, Article No.: 14190). The medium is again removed by suction. 250 μl of HyQtase cell detachment solution (Hyclone, Article No.: SV30030.01) are added to the cells. The 6-well plate is swirled a number of times, and the HyQtase cell detachment solution is subsequently removed by suction. The cells are then incubated in the incubator at 37° C. and 5% CO2 for 5 min. The cells are taken up in 1.5 ml of DPBS (Invitrogen, Article No.: 14190) and transferred into a cup (SARSTEDT, Ref. 72.692.005). The cell count is subsequently determined. To this end, the cells are stained with Trypan Blue and counted in a NeuBauer chamber. The cells are then centrifuged at 3500 g for 1 min. The pellets obtained are photographed, and the supernatant is subsequently removed by suction. The pellets are dissolved in 1 ml of 1N NaOH at 80° C. for 1 h and then cooled to RT. 200 μl per cup (as quadruple determination) are subsequently pipetted into a 96-well plate (VWR, Article No.: 4100636981), and the absorption at a wavelength of 405 nm is determined (Safire, Tecan). The content of melanin can be determined in this way by means of a calibration line. As comparison with the compounds of the formula I to be investigated, a sample with dimethyl sulfoxide (DMSO) (0.1%) as negative control and a sample with IBMX (200 μm) as positive control are each investigated in parallel. The following tables give the results of the determination of the melanin concentration obtained for the substance dilutions indicated. The results obtained are quoted relative to the negative control with dimethyl sulfoxide (DMSO), whose measurement value is set to 100%. IBMX serves as positive control.

[1] = Test 1, 300 μM (printed 300 µM)

| SMILES | Effect on melanogenesis (result in words) (Result of Test 1) | Melanin content in pg/B-16V cell (Test 1, 50 μM) | Effect on melanogenesis (result in words) (Result of Test 2) | Melanin content in pg/B-16V cell (Test 2, 100 μM) | Melanin content in pg/B-16V cell (Test 2, 500 μM) | also measured |
| --- | --- | --- | --- | --- | --- | --- |
| CC(C)Cn1c(=O)n(C)c(=O)c2[nH]cnc21 [IBMX, reference compound] |  |  |  |  |  | Melanin content in pg/B-16V cell (Test 1, 200 μM (printed 200 µM)): 726 pg/B-16V cell; Melanin content in pg/B-16V cell (Test 2, 200 μM (printed 200 µM)): 338 pg/B-16V cell |
| CC(=O)c1ccccc1O [Ia, 1-(2-Hydroxyphenyl)ethanone] | promote melanogenesis | 191 pg/B-16V cell |  |  |  | Melanin content in pg/B-16V cell [1]: 429 pg/B-16V cell; Melanin content in pg/B-16V cell (Test 1, 1 mM): 438 pg/B-16V cell |
| COc1ccccc1C(C)=O [Ib, 1-(2-Methoxyphenyl)ethanone] | promote melanogenesis | 202 pg/B-16V cell |  |  |  | Melanin content in pg/B-16V cell [1]: 318 pg/B-16V cell; Melanin content in pg/B-16V cell (Test 1, 1 mM): 611 pg/B-16V cell |
| CC(=O)c1c(O)cc(O)cc1O [Ic] | promote melanogenesis | 129 pg/B-16V cell |  |  |  | Melanin content in pg/B-16V cell (Test 1, 100 μM): 144 pg/B-16V cell; Melanin content in pg/B-16V cell (Test 1, 500 μM): 184 pg/B-16V cell |
| COc1cccc(O)c1C(C)=O [Id, 1-(2-Hydroxy-6-methoxyphenyl)ethanone] |  |  | promote melanogenesis | 275 pg/B-16V cell | 432 pg/B-16V cell |  |
| COc1ccc(C(C)=O)c(OC)c1 [Ie, 1-(2,4-Dimethoxyphenyl)-ethanone] |  |  | promote melanogenesis | 104 pg/B-16V cell | 121 pg/B-16V cell |  |
| CC(=O)c1ccccc1N [Ig] |  |  | promote melanogenesis | 133 pg/B-16V cell | 209 pg/B-16V cell |  |
| COc1cc(OC)c(C(C)=O)c(OC)c1 [Ih] |  |  | promote melanogenesis | 126 pg/B-16V cell | 164 pg/B-16V cell |  |
